What all share (assay type): ADME, organism-based
Set-up in all cases: dose 750 mg/kg, route oral
Conditions in all cases: in vivo; call rule not given here

A short description of data set [1]: Drug metabolism in Wistar rat urine/feces treated with 750 mg/kg, po of 3,5,7,4'-tetramethoxyflavone by LC-MS and LC-MS/MS analysis.
A short description of data set [2]: Drug excretion in Wistar rat feces at 750 mg/kg, po after 12 hrs by HPLC-UV analysis.
Data set [3] can be described thus: Drug excretion in Wistar rat urine at 750 mg/kg, po after 12 hrs by HPLC-UV analysis.
Data set [4] can be described thus: Drug metabolism in Wistar rat assessed as excretion of 3,5-dihydroxy-7-methoxy-2-(4-methoxyphenyl)-4H-chromen-4-one in urine/feces at 750 mg/kg, po by LC-MS and LC-MS/MS analysis.
The nature of data set [5]: Drug metabolism in Wistar rat assessed as excretion of 3,5-dihydroxy-2-(4-hydroxyphenyl)-7-methoxy-4H-chromen-4-one in feces at 750 mg/kg, po by LC-MS and LC-MS/MS analysis.
Data set [6] in a line: Drug metabolism in Wistar rat urine/feces treated with 750 mg/kg, po of 5,7,4'-trimethoxyflavone by LC-MS and LC-MS/MS analysis.

Take `COc1ccc(-c2oc3cc(OC)cc(O)c3c(=O)c2O)cc1`: in data set [1], the Drug metabolism result is listed as “metabolite_detected”.

As to `COc1cc(O)c2c(=O)c(OC)c(-c3ccc(OC)c(OC)c3)oc2c1` [RETUSIN], the Drug excretion entry in data set [2] and in data set [3] was “Active” each time.

Regarding `COc1ccc(-c2oc3cc(OC)cc(OC)c3c(=O)c2OC)cc1` [TETRAMETHYLKAEMPFEROL], the Drug metabolism result in data set [4] and in data set [5] was “metabolite_detected” throughout.

Consider `COc1ccc(-c2cc(=O)c3c(OS(=O)(=O)O)cc(OC)cc3o2)cc1`, for which the Drug metabolism entry in data set [6] is “metabolite_detected”.

Consider `COc1ccc(-c2cc(=O)c3c(O)cc(OS(=O)(=O)O)cc3o2)cc1`, for which the Drug metabolism result in data set [6] is listed as “metabolite_detected”.

Consider `COc1cc(O)c2c(=O)c(OC)c(-c3ccccc3)oc2c1`, for which the Drug excretion entry in data set [2] and in data set [3] was “Active” each time.

Consider `COc1cc(O)c2c(=O)cc(-c3ccc(O)cc3)oc2c1` [GENKWANIN], for which the Drug metabolism entry in data set [6] is reported as “metabolite_detected”.

With `COc1cc(O)c2c(=O)cc(-c3ccccc3)oc2c1` [TECHTOCHRYSIN], the Drug excretion entry in data set [2] and in data set [3] was “Active” throughout.

These data come from ChEMBL document CHEMBL3526121, “Pharmacokinetics, bioavailability, tissue distribution, excretion, and metabolite identification of methoxyflavones in Kaempferia parviflora extract in rats” (Drug Metab Dispos, 2012).
